According to the supplement of paper PMC10627819:

Experiments:
B. subtilis 168 [1] = test: fitness (endpoint OD595 vs no drug) (fraction); higher = more growth
Outline: (§1)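 Fitness was defined as the optical density at the transition into stationary phase relative to the robust mean of no-drug control wells. Values were capped at 1. Cultures were started at OD595 0.01 in 384-well plates (30 µl, or 55 µl for S. pneumoniae) in TSB, LB Lennox or CY at 37 °C. OD595 was recorded every 30 min over 14 h, with the first reading subtracted as background.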

S. aureus DSM 20231 [2] = test: as above
Outline: as §1

S. aureus Newman [3] = test: as above
Outline: as §1

S. pneumoniae D39V [4] = test: as above
Outline: as §1

B. subtilis 168 [5] = test: Bliss interaction score (quartile over a dose matrix) (fitness difference); higher = more antagonism (negative = synergy)
Outline: (§2)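 The Bliss score is observed minus expected fitness under the product model, reported as quartiles over technical, biological and donor/recipient replicates. Fitness is the OD595 at entry into stationary phase divided by the plate's robust no-drug mean and capped at 1. Single-drug fitness was inferred from combination data.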

S. aureus DSM 20231 [6] = test: as above
Outline: as §2

S. aureus Newman [7] = test: as above
Outline: as §2

S. pneumoniae D39V [8] = test: as above
Outline: as §2
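Wherever Bliss interaction score (quartile over a dose matrix) is given: first quartile when negative (synergy) and third quartile when positive (antagonism).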

Cc1ncc([N+](=O)[O-])n1CCO [Metronidazole] + CN[C@@H]1[C@H](O)[C@H](NC)[C@H]2O[C@@]3(O)C(=O)C[C@@H](C)O[C@H]3O[C@@H]2[C@H]1O [Spectinomycin]
fitness
Conditions	partner 2 µg/mL	partner 4 µg/mL	partner 8 µg/mL	partner 16 µg/mL
B. subtilis 168 [1], first compound 0.625 µg/mL	0.947	0.963	0.949	–
B. subtilis 168 [1], first compound 1.25 µg/mL	0.973	0.953	0.889	–
B. subtilis 168 [1], first compound 2.5 µg/mL	0.976	0.95	0.91	–
S. aureus DSM 20231 [2], first compound 0.625 µg/mL	–	0.973	0.944	0.887
S. aureus DSM 20231 [2], first compound 1.25 µg/mL	–	0.946	0.958	0.852
S. aureus DSM 20231 [2], first compound 2.5 µg/mL	–	0.976	≥ 1	0.924
S. aureus Newman [3], first compound 0.625 µg/mL	–	0.94	0.909	0.929
S. aureus Newman [3], first compound 0.781 µg/mL	–	0.893	0.974	0.91
S. aureus Newman [3], first compound 1.25 µg/mL	–	0.98	0.98	0.932
S. aureus Newman [3], first compound 1.562 µg/mL	–	0.93	0.998	0.928
S. aureus Newman [3], first compound 2.5 µg/mL	–	0.951	0.926	0.926
S. aureus Newman [3], first compound 3.124 µg/mL	–	0.895	0.98	0.935
S. pneumoniae D39V [4], first compound 1.073 µg/mL	–	0.94	0.976	0.909
S. pneumoniae D39V [4], first compound 2.145 µg/mL	–	0.946	0.944	0.881
S. pneumoniae D39V [4], first compound 4.29 µg/mL	–	0.901	0.9	0.878

fitness, one replicate
Conditions	first compound 0.625 µg/mL	first compound 1.25 µg/mL	first compound 2.5 µg/mL	first compound 5 µg/mL
S. aureus DSM 20231 [2], partner 32 µg/mL	0.703	0.684	0.689	–
S. aureus DSM 20231 [2], partner 64 µg/mL	0.0868	0.121	0.103	–
S. aureus Newman [3], partner 32 µg/mL	0.685	0.656	0.596	–
S. aureus Newman [3], partner 64 µg/mL	0.101	0.147	0.134	–
S. pneumoniae D39V [4], partner 4 µg/mL	–	≥ 1	≥ 1	≥ 1
S. pneumoniae D39V [4], partner 8 µg/mL	–	0.964	0.99	0.986

Conditions	Bliss interaction score
B. subtilis 168 [5]	-0.0603
S. aureus DSM 20231 [6]	0.0691
S. aureus Newman [7]	0.0758
S. pneumoniae D39V [8]	0.044

CO/N=C(\C(=O)N[C@@H]1C(=O)N2C(C(=O)O)=C(COC(C)=O)CS[C@H]12)c1csc(N)n1 [Cefotaxime] + CN[C@@H]1[C@H](O)[C@H](NC)[C@H]2O[C@@]3(O)C(=O)C[C@@H](C)O[C@H]3O[C@@H]2[C@H]1O [Spectinomycin]
one replicate
Conditions	fitness
B. subtilis 168 [1], first compound 0.00775 µg/mL, partner 2 µg/mL	0.794
B. subtilis 168 [1], first compound 0.00775 µg/mL, partner 4 µg/mL	0.796
B. subtilis 168 [1], first compound 0.00775 µg/mL, partner 8 µg/mL	0.816
B. subtilis 168 [1], first compound 0.0155 µg/mL, partner 2 µg/mL	0.671
B. subtilis 168 [1], first compound 0.0155 µg/mL, partner 4 µg/mL	0.748
B. subtilis 168 [1], first compound 0.0155 µg/mL, partner 8 µg/mL	0.571
B. subtilis 168 [1], first compound 0.031 µg/mL, partner 2 µg/mL	0.521
B. subtilis 168 [1], first compound 0.031 µg/mL, partner 4 µg/mL	0.519
B. subtilis 168 [1], first compound 0.031 µg/mL, partner 8 µg/mL	0.258
S. aureus DSM 20231 [2], first compound 0.039 µg/mL, partner 4 µg/mL	0.72
S. aureus DSM 20231 [2], first compound 0.039 µg/mL, partner 8 µg/mL	0.747
S. aureus DSM 20231 [2], first compound 0.039 µg/mL, partner 16 µg/mL	0.707
S. aureus DSM 20231 [2], first compound 0.078 µg/mL, partner 32 µg/mL	0.597
S. aureus DSM 20231 [2], first compound 0.078 µg/mL, partner 64 µg/mL	0.0453
S. aureus DSM 20231 [2], first compound 0.156 µg/mL, partner 32 µg/mL	0.632
S. aureus DSM 20231 [2], first compound 0.156 µg/mL, partner 64 µg/mL	0.0727
S. aureus DSM 20231 [2], first compound 0.312 µg/mL, partner 32 µg/mL	0.583
S. aureus DSM 20231 [2], first compound 0.312 µg/mL, partner 64 µg/mL	0.0287
S. aureus Newman [3], first compound 0.078 µg/mL, partner 32 µg/mL	0.328
S. aureus Newman [3], first compound 0.078 µg/mL, partner 64 µg/mL	0.0751
S. aureus Newman [3], first compound 0.156 µg/mL, partner 32 µg/mL	0.0776
S. aureus Newman [3], first compound 0.156 µg/mL, partner 64 µg/mL	0.0848
S. aureus Newman [3], first compound 0.312 µg/mL, partner 32 µg/mL	0.0307
S. aureus Newman [3], first compound 0.312 µg/mL, partner 64 µg/mL	0.0805
S. aureus Newman [3], first compound 0.625 µg/mL, partner 4 µg/mL	0.0066
S. aureus Newman [3], first compound 0.625 µg/mL, partner 8 µg/mL	0.0296
S. aureus Newman [3], first compound 0.625 µg/mL, partner 16 µg/mL	0.021
S. aureus Newman [3], first compound 1.25 µg/mL, partner 4 µg/mL	0.0276
S. aureus Newman [3], first compound 1.25 µg/mL, partner 8 µg/mL	0.0141
S. aureus Newman [3], first compound 1.25 µg/mL, partner 16 µg/mL	0.0089
S. aureus Newman [3], first compound 2.5 µg/mL, partner 4 µg/mL	0.0608
S. aureus Newman [3], first compound 2.5 µg/mL, partner 8 µg/mL	0.0355
S. aureus Newman [3], first compound 2.5 µg/mL, partner 16 µg/mL	0.0355

fitness
Conditions	partner 2 µg/mL	partner 4 µg/mL	partner 8 µg/mL	partner 16 µg/mL
B. subtilis 168 [1], first compound 0.5 µg/mL	0.234	0.139	0.0989	–
B. subtilis 168 [1], first compound 1 µg/mL	0.11	0.0503	0.0323	–
B. subtilis 168 [1], first compound 2 µg/mL	0.0973	0.0906	0.091	–
S. aureus DSM 20231 [2], first compound 0.078 µg/mL	–	0.791	0.747	0.714
S. aureus DSM 20231 [2], first compound 0.156 µg/mL	–	0.704	0.754	0.711
S. aureus DSM 20231 [2], first compound 0.312 µg/mL	–	0.68	0.694	0.596
S. aureus Newman [3], first compound 0.078 µg/mL	–	0.697	0.716	0.686
S. aureus Newman [3], first compound 0.156 µg/mL	–	0.582	0.59	0.503
S. aureus Newman [3], first compound 0.312 µg/mL	–	0.272	0.201	0.0958
S. pneumoniae D39V [4], first compound 0.0018 µg/mL	–	0.985	0.944	0.9
S. pneumoniae D39V [4], first compound 0.0035 µg/mL	–	0.97	0.944	0.847
S. pneumoniae D39V [4], first compound 0.007 µg/mL	–	0.834	0.852	0.8

Conditions	Bliss interaction score
B. subtilis 168 [5]	-0.0623
S. aureus DSM 20231 [6]	0.0658
S. aureus Newman [7]	-0.0972
S. pneumoniae D39V [8]	0.108
